# Results from patent publication US8022069B2, “Substituted piperidines as renin inhibitors” (Novartis AG, priority 2008, dated 2011).
# Biological target: T1, renin (Homo sapiens, UniProt P00797)
# T1 construct: This test measures the formation of angiotensin I in human plasma; from tissue; host or cells: human plasma
# T1 sequence (P00797 67-406): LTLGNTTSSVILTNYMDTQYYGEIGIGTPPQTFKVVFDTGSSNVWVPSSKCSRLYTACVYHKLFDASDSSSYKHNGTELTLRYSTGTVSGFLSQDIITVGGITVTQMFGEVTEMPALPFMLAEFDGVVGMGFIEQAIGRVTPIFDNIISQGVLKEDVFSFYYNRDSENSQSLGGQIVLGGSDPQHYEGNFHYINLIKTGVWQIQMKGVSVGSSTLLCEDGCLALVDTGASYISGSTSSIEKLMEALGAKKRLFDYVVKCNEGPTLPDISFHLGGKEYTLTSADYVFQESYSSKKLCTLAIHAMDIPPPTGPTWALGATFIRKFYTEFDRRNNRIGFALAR
# Experiment: formation of angiotensin I in human plasma, radioimmunoassay (Nussberger et al.)
# Assay type: biochemical
# Details: values in the range of about, read-out: IC50, inhibition of the formation of angiotensin I
# Description: The effect of renin inhibitors is detected inter alia experimentally by means of in vitro tests where the reduction in the formation of angiotensin I is measured in various systems (human plasma, purified human renin together with synthetic or natural renin substrate). The following in vitro test of Nussberger et al. (1987) J. Cardiovascular Pharmacol., Vol. 9, pp. 39-44, is used inter alia. This test measures the formation of angiotensin I in human plasma. The amount of angiotensin I formed is determined in a subsequent radioimmunoassay. The effect of inhibitors on the formation of angiotensin I is tested in this system by adding various concentrations of these substances. The IC50 is defined as the concentration of the particular inhibitor which reduces the formation of angiotensin I by 50%. The compounds of the present invention show inhibitory effects in the in vitro systems at minimal concentrations of about 10^−6 mol/l to about 10^−10 mol/l.
row,SMILES,IC50
1,"CCO[C@H](C)COCc1ccc([C@H]2C[C@@H](CC(C)(C)C(=O)NC)NC[C@@H]2OCc2ccc3c(c2)N(CCCOC)CCO3)cc1 [Example 5, 3-{(2S,4R,5R)-4-[4-((R)-2-Ethoxy-propoxymethyl)-phenyl]-5-[4-(3-methoxy-propyl) -3,4-dihydro-2H-benzo[1,4]oxazin-6-ylmethoxy]-piperidin-2-yl}-2,2,N-trimethyl-propionamide]",0.1 to 10 nM
2,"CCO[C@H](C)COCc1ccc([C@H]2C[C@H](CCn3cnnc3)NC[C@@H]2OCc2ccc3c(c2)N(CCCOC)CCO3)cc1 [Example 9, 6-[(3R,4R,6R)-4-[4-((R)-2-Ethoxy-propoxymethyl)-phenyl]-6-(2-[1,2,4]triazol-4-yl-ethyl) -piperidin-3-yloxymethyl]-4-(3-methoxy-propyl)-3,4-dihydro-2H-benzo[1,4]oxazine]",0.1 to 10 nM
